Reference: patent publication US9708336B2, “Metallo-beta-lactamase inhibitors” (priority 2014, dated 2017)
Where two headings read alike, the source gives them in different places.

Key:
NDM-1 = NDM-1 (Klebsiella pneumoniae, UniProt C7C422); assay: biochemical; type: biochemical
IMP-1 = IMP-1 (Serratia marcescens, UniProt P52699); assay: biochemical; type: biochemical; conditions: read-out: IMP-1 IC50
VIM-1 = VIM-1 (Pseudomonas aeruginosa (strain ATCC 15692 / DSM 22644 / CIP 104116 / JCM 14847 / LMG 12228 / 1C / PRS 101 / PAO1), UniProt A0A0F7KYQ8); assay: Enzyme activity: determination of IC50, fluorescence assay with CCF2-FA substrate (VIM-1); type: biochemical
[1] = tested on: Escherichia coli expressing NDM-1 (CLB30016); assay: Antibiotic potentiation activity: synergistic concentration (MITC95) with imipenem, OD600 growth; type: cell-based
In short: (§1)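 Imipenem (4 μg/ml final; 1 μg/ml as an option) was combined with compound against isolates diluted 1:100 from saline suspensions into 1.1× CAMHB. Growth was assessed by absorbance at 22–24 h, 35 °C.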

[2] = tested on: Klebsiella pneumoniae expressing VIM-1 (IHMA599644); assay: as above; type: cell-based
In short: as §1

[3] = tested on: Serratia marcescens expressing IMP-1 (CL5741); assay: as above; type: cell-based
In short: as §1

[4] = NDM-1 enzyme, CCF2-FA substrate, read-out: NDM-1 IC50
[5] = IMP-1 enzyme, CCF2-FA substrate
[6] = VIM-1 enzyme, CCF2-FA substrate, read-out: VIM-1 IC50
[7] = (CLB30016, NDM-1), 95% growth inhibition
[8] = Klebsiella pneumoniae IHMA599644 (VIM-1), 95% growth inhibition
[9] = Serratia marcescens CL5741 (IMP-1), 95% growth inhibition
[10] = fluorescence assay with CCF2-FA substrate, read-out: NDM-1 IC50
[11] = fluorescence assay with CCF2-FA substrate
[12] = fluorescence assay with CCF2-FA substrate, read-out: VIM-1 IC50
[13] = CLB30016 (NDM-1), 95% inhibition of bacterial growth
[14] = IHMA599644 (VIM-1), 95% inhibition of bacterial growth
[15] = CL5741 (IMP-1), 95% inhibition of bacterial growth
[16] = VIM-1 IC50, VIM-1 enzyme, CCF2-FA substrate
[17] = NDM-1 enzyme, CCF2-FA fluorescence assay, read-out: NDM-1 IC50
[18] = IMP-1 enzyme, CCF2-FA fluorescence assay
[19] = VIM-1 enzyme, CCF2-FA fluorescence assay, read-out: VIM-1 IC50
[20] = Escherichia coli expressing NDM-1 (CLB30016), 95% growth inhibition
[21] = Klebsiella pneumoniae expressing VIM-1 (IHMA599644), 95% growth inhibition
[22] = Serratia marcescens expressing IMP-1 (CL5741), 95% growth inhibition
[23] = concentration giving 95% inhibition of bacterial growth

IMP-1, sequence (P52699 whole entry, looked up): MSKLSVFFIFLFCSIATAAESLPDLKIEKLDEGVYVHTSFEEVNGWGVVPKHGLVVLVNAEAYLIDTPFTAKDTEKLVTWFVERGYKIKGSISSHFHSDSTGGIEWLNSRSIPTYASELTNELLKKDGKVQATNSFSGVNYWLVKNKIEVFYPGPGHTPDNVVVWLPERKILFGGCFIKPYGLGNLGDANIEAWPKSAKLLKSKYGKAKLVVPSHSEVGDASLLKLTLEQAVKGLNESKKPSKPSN
NDM-1, sequence (C7C422 whole entry, looked up, species assumed): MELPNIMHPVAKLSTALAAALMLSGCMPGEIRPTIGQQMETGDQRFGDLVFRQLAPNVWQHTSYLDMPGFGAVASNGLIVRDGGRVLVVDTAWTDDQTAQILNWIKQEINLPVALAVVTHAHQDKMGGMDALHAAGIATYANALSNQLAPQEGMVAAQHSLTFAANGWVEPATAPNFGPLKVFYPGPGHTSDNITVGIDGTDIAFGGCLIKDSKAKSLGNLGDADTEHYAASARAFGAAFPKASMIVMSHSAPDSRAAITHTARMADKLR

| Compound | IC50 (NDM-1; [4]) | IC50 (IMP-1; [5]) | IC50 (VIM-1; [6]) | Escherichia coli MITC95 [1, 7] | Klebsiella pneumoniae MITC95 [2, 8] | Serratia marcescens MITC95 [3, 9] | IC50 (NDM-1; [10]) | IC50 (IMP-1; [11]) | further results |
| --- | --- | --- | --- | --- | --- | --- | --- | --- | --- |
| NC1(c2ccc(-c3ccc(C(F)(F)F)c(S(N)(=O)=O)c3-c3nnn[nH]3)cc2)CCOC1 (stereo not drawn) [Example 730, 4′-(3-aminotetrahydrofuran-3-yl)-2-(1H-tetrazol-5-yl)-4-(trifluoromethyl)biphenyl-3-sulfonamide] | 2.8 nM | 3.57 nM | 6 nM | 3.125 µM | 50 µM | 3.125 µM | – | – | – |
| CC(CO)(CO)c1ccc(-c2ccc(C(F)(F)F)c(S(N)(=O)=O)c2-c2nnn[nH]2)cc1 [Example 725, 4′-[2-hydroxy-1-(hydroxymethyl)-1-methylethyl]-2-(1H-tetrazol-5-yl)-4-(trifluoromethyl)biphenyl-3-sulfonamide] | 0.767 nM | 0.92 nM | 1.27 nM | 12.5 µM | 25 µM | 6.25 µM | – | – | – |
| NC1CCCC(N2CC(c3ccc(-c4ccc(C(F)(F)F)c(S(N)(=O)=O)c4-c4nnn[nH]4)cc3)C2)C1 (stereo not drawn) [Example 810, 4′-[1-(3-aminocyclohexyl)azetidin-3-yl]-2-(1H-tetrazol-5-yl)-4-(trifluoromethyl)biphenyl-3-sulfonamide] | – | – | – | – | – | – | 7.06 nM | 8.92 nM | IC50 (VIM-1; [12]): 26.8 nM; Escherichia coli MITC95 [1, 13]: 3.125 µM; Klebsiella pneumoniae MITC95 [2, 14]: 100 µM; Serratia marcescens MITC95 [3, 15]: 6.25 µM |
| NS(=O)(=O)c1c(C(F)(F)F)ccc(N2CCN(CCCO)CC2)c1-c1nnn[nH]1 [Example 763, 3-[4-(3-hydroxypropyl)piperazin-1-yl]-2-(1H-tetrazol-5-yl)-6-(trifluoromethyl) benzenesulfonamide] | – | – | – | – | – | – | 37.7 nM | 46.4 nM | IC50 (VIM-1; [12]): 73.6 nM; Escherichia coli MITC95 [1, 13]: 1.563 µM; Klebsiella pneumoniae MITC95 [2, 14]: 50 µM; Serratia marcescens MITC95 [3, 15]: 3.125 µM |
| NC[C@H]1CC[C@H](Cc2ccc(-c3ccc(C4CNC4)cc3)c(-c3nnn[nH]3)c2S(N)(=O)=O)CC1 [Example 601, 4-(((1r,4r)-4-(aminomethyl)cyclohexyl)methyl)-4′-(azetidin-3-yl)-2-(1H-tetrazol-5-yl)-[1,1′-biphenyl]-3-sulfonamide] | 1.66 nM | 13.1 nM | – | 1.563 µM | 1.563 µM | 3.125 µM | – | – | IC50 (VIM-1; [16]): 0.587 nM |
| NS(=O)(=O)c1c(C(F)(F)F)ccc(-c2cccc3c2ccc[n+]3[O-])c1-c1nn[nH]n1 [Example 514, 5-(3-Sulfamoyl-2-(2H-tetrazol-5-yl)-4-(trifluoromethyl)phenyl)quinoline 1-oxide] | 1.15 nM | 6.08 nM | 0.138 nM | 3.125 µM | 9.375 µM | 1.172 µM | – | – | – |
| NS(=O)(=O)c1cccc(-c2ccc(C3CCN(CC4CNC4)CC3)cc2)c1-c1nnn[nH]1 [Example 617, 3-[4-[1-(azetidin-3-ylmethyl)-4-piperidyl]phenyl]-2-(1H-tetrazol-5-yl)benzenesulfonamide] | 10 nM | 9.66 nM | 334 nM | 0.25 µM | 37.5 µM | 0.2969 µM | – | – | – |
| NCCCc1ccc(-c2ccc(C(F)(F)F)c(S(N)(=O)=O)c2-c2nnn[nH]2)cc1 [Example 735, 4′-(3-aminopropyl)-2-(1H-tetrazol-5-yl)-4-(trifluoromethyl)biphenyl-3-sulfonamide] | 3.03 nM | 1.7 nM | 0.388 nM | 3.125 µM | 6.25 µM | 3.125 µM | – | – | – |
| Nc1ccnc2ccc(-c3ccc(C(F)(F)F)c(S(N)(=O)=O)c3-c3nnn[nH]3)cc12 [Example 479, 3-(4-amino-6-quinolyl)-2-(1H-tetrazol-5-yl)-6-(trifluoromethyl)benzenesulfonamide] | – | – | – | – | – | – | – | – | IC50 (NDM-1; [17]): 6.66 nM; IC50 (IMP-1; [18]): 30.3 nM; IC50 (VIM-1; [19]): 0.373 nM; Escherichia coli MITC95 [1, 20]: 0.3906 µM; Klebsiella pneumoniae MITC95 [2, 21]: 0.7813 µM; Serratia marcescens MITC95 [3, 22]: 1.563 µM |
| NS(=O)(=O)c1nccc(N2CCC(N3CC[C@H](O)C3)CC2)c1-c1nnn[nH]1 [Example 226, 4-{4-[(3S)-3-hydroxypyrrolidin-1-yl]piperidin-1-yl}-3-(1H-tetrazol-5-yl)pyridine-2-sulfonamide] | – | – | – | – | – | – | 481 nM | 3870 nM | IC50 (VIM-1; [12]): 710 nM; Escherichia coli expressing NDM-1 (CLB 30016) MITC95 [1, 23]: 6.25 µM; Klebsiella pneumoniae expressing VIM-1 (IHMA 599644) MITC95 [2, 23]: 12.5 µM; Serratia marcescens expressing IMP-1 (CL5741) MITC95 [3, 23]: 50 µM |
| NCC1CCC(N[C@H]2CC[C@H](c3ccc(C(F)(F)F)c(S(N)(=O)=O)c3-c3nnn[nH]3)CC2)CC1 (stereo partly drawn) [Example 699, 3-(4-{[4-(aminomethyl)cyclohexyl]amino}cyclohexyl)-2-(1H-tetrazol-5-yl)-6-(trifluoromethyl)benzene sulfonamide] | 18 nM | 58.8 nM | 4.72 nM | 3.125 µM | 6.25 µM | 6.25 µM | – | – | – |
| NS(=O)(=O)c1c(C(F)(F)F)ccc(N2CCC3(CCNC3)CC2)c1-c1nnn[nH]1 [Example 775, 3-(2,8-diazaspiro[4.5]dec-8-yl)-2-(1H-tetrazol-5-yl)-6-(trifluoromethyl) benzenesulfonamide] | – | – | – | – | – | – | 9.04 nM | 35.8 nM | IC50 (VIM-1; [12]): 5.19 nM; Escherichia coli MITC95 [1, 13]: 3.125 µM; Klebsiella pneumoniae MITC95 [2, 14]: 12.5 µM; Serratia marcescens MITC95 [3, 15]: 6.25 µM |
| NS(=O)(=O)c1c(C(F)(F)F)ccc(-c2cnn3ccccc23)c1-c1nnn[nH]1 [Example 710, 3-pyrazolo[1,5-a]pyridin-3-yl-2-(1H-tetrazol-5-yl)-6-(trifluoromethyl)benzenesulfon-amide] | 0.89 nM | 2.08 nM | – | 6.25 µM | 12.5 µM | 6.25 µM | – | – | IC50 (VIM-1; [16]): 0.168 nM |
| NS(=O)(=O)c1c(C(F)(F)F)ccc(N2C[C@@H](O)[C@H](O)C2)c1-c1nnn[nH]1 [Example 756, 3-[(3R,4R)-3,4-dihydroxypyrrolidin-1-yl]-2-(1H-tetrazol-5-yl)-6-(trifluoromethyl) benzenesulfonamide] | – | – | – | – | – | – | 78.1 nM | 89.1 nM | IC50 (VIM-1; VIM-1 IC50, fluorescence assay with CCF2-FA substrate): 339 nM; Escherichia coli MITC95 [1, 13]: 12.5 µM; Klebsiella pneumoniae MITC95 [2, 14]: >200 µM; Serratia marcescens MITC95 [3, 15]: 12.5 µM |
| NS(=O)(=O)c1c(C(F)(F)F)ccc([C@H]2CC[C@H](C3=NCCN3)CC2)c1-c1nnn[nH]1 [Example 506, 3-(trans 4-(4,5-dihydro-1H-imidazol-2-yl)cyclohexyl)-2-(1H-tetrazol-5-yl)-6-(trifluoromethyl)benzenesulfonamide] | – | 35.7 nM | – | 4.688 µM | 100 µM | 6.25 µM | – | – | IC50 (NDM-1): 2.22 nM; IC50 (VIM-1; [16]): 41.4 nM |
| NC1(c2ccc(-c3ccc(C(F)(F)F)c(S(N)(=O)=O)c3-c3nn[nH]n3)cc2)CCNCC1 [Example 436, 4′-(4-aminopiperidin-4-yl)-2-(2H-tetrazol-5-yl)-4-(trifluoromethyl)-[1,1′-biphenyl]-3-sulfonamide] | – | – | – | – | – | – | – | – | IC50 (NDM-1; [17]): 9.32 nM; IC50 (IMP-1; [18]): 12.8 nM; IC50 (VIM-1; [19]): 3.04 nM; Escherichia coli MITC95 [1, 20]: 0.375 µM; Klebsiella pneumoniae MITC95 [2, 21]: 0.8542 µM; Serratia marcescens MITC95 [3, 22]: 0.2552 µM |
